Measured values reported in paper PMC314469, “Protein Interaction Networks by Proteome Peptide Scanning” (PLoS Biology, 2004).
No end group written: not given here.

Key:
[1] = biological target: T1, Rvs167 SH3 domain (GST-fused) (Saccharomyces cerevisiae, UniProt P39743); assay: Surface plasmon resonance (BIAcoreX) dissociation constants of peptides, Rvs167 SH3 domain; type: binding; details: Figure 4A; SPR BIAcoreX, GST-SH3 coupled to CM5 chip, GST control; peptides in 10 mM HEPES, 150 mM NaCl, 3.4 mM EDTA, 0.005% P20, pH 7.4, 25°C; steady-state model; read-out: dissociation constant, SH3 DOMAINS RVS167
T1 construct: Experiments were carried out on sensor chips with GST-fused SH3 domains and GST as a control; made in house
T1 sequence (P39743 421-482 limits assumed): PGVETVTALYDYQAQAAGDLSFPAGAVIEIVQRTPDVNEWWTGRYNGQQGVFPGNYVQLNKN
Procedure: Figure 4 Measurement of Dissociation Constants and Correlation with SPOT Intensities (A) Dissociation constants were measured with a BIAcoreX instrument as described in the Materials and Methods. The experiments with the Abp1 SH3 domain were carried out in triplicate. (B) Normalized BLU intensities plotted as a function of the log of the dissociation constant.
Surface plasmon resonance measurements were carried out with a BIAcoreX instrument (BIAcore, Uppsala, Sweden). Experiments were carried out on sensor chips with GST-fused SH3 domains and GST as a control. […] Interaction analysis was performed at 25°C with the peptides dissolved in 10 mM HEPES, 150 mM NaCl, 3.4 mM EDTA, and 0.005% surfactant P20 (pH 7.4), at 15 μl/min flow rate, using six to seven dilutions, ranging from 500 μM to 65 nM. Dissociation constant values were evaluated by applying the steady-state model using BIAcore evalution 3.1 software.

Myo5 SH3 domain = assay: SPOT analysis of cellulose-bound peptides (WISE), Myo5 SH3 domain (Dataset S4); type: binding, Saccharomyces cerevisiae; details: for The normalized value in BLU units: Myo5 SH3 domain
[2] = SPOT analysis of cellulose-bound peptides probed with Myo5 SH3 domain, normalized value
[3] = SPOT analysis of membrane-bound peptides, normalized value (see methods)
[4] = SPOT analysis of membrane-synthesized peptides probed with Myo5 SH3 domain, normalized value
[5] = SPOT analysis of cellulose-bound 14-mer yeast proteome peptides, normalized value, mean where the peptide was synthesized more than once

Sequence | The normalized value in BLU units (Myo5 SH3 domain; [3]) | The normalized value in BLU units (SPOT analysis, Myo5 SH3) (Myo5 SH3 domain; [4]) | also measured
RPKRRAPPPVPKKP [YIR003 RPKRRAPPPVPKKP] |  |  | Kd [1]: 13 µM
GKDKSRPPRPPPKP [PK1 GKDKSRPPRPPPKP] |  |  | Kd [1]: > 100 µM
SFVHLTEPSQPLSD |  |  | The normalized value in BLU units (SPOT analysis, Myo5 SH3) (Myo5 SH3 domain; [2]): 99.7 BLU
EKYGKDQPESPVPE | 143.3 BLU |  | 
NTINKSNPQGPSDN |  | 76.2 BLU | 
LTSFKGRPKPPKTL | 327.7 BLU |  | 
TEFSRPIPPTPSGF | 163.0 BLU |  | 
TTRRKKDPNAPKRR | 999.1 BLU |  | 
FEEDKMTPSTPVRS |  | 248.5 BLU | 
CNRARYLPQNPDII | 243.9 BLU |  | 
AGPRKYIPRAPAQG | 194.7 BLU |  | 
ILKNRMNPEKPYEL |  | 321.6 BLU | 
NQIARQIPFQPWYL | 247.7 BLU |  | 
VLGVLNVPLPPQTR |  |  | The normalized value in BLU units (SPOT analysis, Myo5 SH3) (Myo5 SH3 domain; [2]): 233.0 BLU
RLTNFEVPSLPTFH |  |  | The normalized value in BLU units (SPOT analysis, Myo5 SH3) (Myo5 SH3 domain; [2]): 319.1 BLU
IPYEKRDPTSPAPL |  | 114.1 BLU | 
REYIKSLPMYPAAP |  | 70.4 BLU | 
QWSKRIMPYIPGPV |  | 295.5 BLU | 
APPPKEEPAAPTST | 116.7 BLU |  | 

Sequence | The normalized value in BLU units (Myo5 SH3 domain; [3]) | The normalized value in BLU units (SPOT analysis, Myo5 SH3) (Myo5 SH3 domain; [4]) | also measured
TAAELQAPPPPPSS |  |  | The normalized value in BLU units (SPOT analysis, Myo5 SH3) (Myo5 SH3 domain; [2]): 315.2 BLU
KKNPKKSPMGPQGA |  | 1007.5 BLU | 
QLQEKLSPDLPDEE | 216.1 BLU |  | 
REASLDIPYKPIIA |  |  | The normalized value in BLU units (Myo5 SH3 domain; [5]): 176.1 BLU
KFFKREYPDIPMIA | 154.6 BLU |  | 
IQQNKQGPKIPFYL |  | 86.9 BLU | 
KAGSFGAPSSPTSG |  |  | The normalized value in BLU units (Myo5 SH3 domain; [5]): 123.7 BLU
VVPERVKPAPPVSR | 149.8 BLU |  | 
KAALKYHPDKPTGD |  | 155.5 BLU | 
VEMKRKKPVRPVDI | 472.2 BLU |  | 
MTQPKKNPMEPKTD |  |  | The normalized value in BLU units (Myo5 SH3 domain; [5]): 147.2 BLU
NTIIKFDPGRPIYN | 271.8 BLU |  | 
KFLIHNEPIDPNDR |  |  | The normalized value in BLU units (SPOT analysis, Myo5 SH3) (Myo5 SH3 domain; [2]): 121.7 BLU
MPNLKRLPIPPLQD |  |  | The normalized value in BLU units (Myo5 SH3 domain; [5]): 306.9 BLU
YVYGRQDPKKPFFT |  | 345.2 BLU | 
PVPVRMQPQPPQPM | 187.8 BLU |  | 
YWGKKFEPERPFEF |  | 385.0 BLU | 
TSSLRKPPNGPSSV | 143.8 BLU |  | 
GQQKRFSPSLPSAV | 728.5 BLU |  | 

Sequence | The normalized value in BLU units (Myo5 SH3 domain; [3]) | The normalized value in BLU units (SPOT analysis, Myo5 SH3) (Myo5 SH3 domain; [4]) | also measured
AGLYKLSPLYPFDV |  | 133.2 BLU | 
GLRWYRSPIYPYLY |  |  | The normalized value in BLU units (SPOT analysis, Myo5 SH3) (Myo5 SH3 domain; [2]): 468.1 BLU
DENSKWQPSDPFTM |  | 285.2 BLU | 
ILPVLNIPLPPQEK |  |  | The normalized value in BLU units (SPOT analysis, Myo5 SH3) (Myo5 SH3 domain; [2]): 21.6 BLU
QPAQFMPPQDPAAA |  |  | The normalized value in BLU units (Myo5 SH3 domain; [5]): 133.5 BLU
KYCFKLVPPQPGSK | 218.8 BLU |  | 
TSSSRRGPGRPRKD |  | 619.5 BLU | 
LIDFKDYPDVPKVP |  | 153.6 BLU | 
PPLDFEQPRLPSTA |  |  | The normalized value in BLU units (SPOT analysis, Myo5 SH3) (Myo5 SH3 domain; [2]): 192.3 BLU
PIRLRKRPPPPPPV | 60274.0 BLU |  | 
NSVIRGCPGLPDTL |  | 150.8 BLU | 
GSQWKNHPDWPFWV | 108.4 BLU |  | 
LSFDRPPPLTPEKN |  | 174.4 BLU | 
QEISLIDPSTPDKA |  |  | The normalized value in BLU units (Myo5 SH3 domain; [5]): 155.1 BLU
HPIHLQPPVPPVYK |  |  | The normalized value in BLU units (Myo5 SH3 domain; [5]): 317.7 BLU
TLATLTEPKLPKSY |  |  | The normalized value in BLU units (Myo5 SH3 domain; [5]): 18.0 BLU
TNGPRYSPQNPRPF | 158.5 BLU |  | 
IESFRERPLEPPRK |  | 98.7 BLU | 
FYDFRSLPKVPTTQ | 336.7 BLU |  | 
